Test results from ChEMBL document CHEMBL1759888, “Biological evaluation of polyhalo 1,3-diazaheterocycle fused isoquinolin-1(2H)-imine derivatives” (Eur J Med Chem, 2011).
In brackets after ≈: the same amount, converted by molar mass.

Assays:
[1] = Lipophilicity, log P of the compound; type: physicochemical; details: octanol/water
A-431 = assay: Anticancer activity against human A431 cells after 72 hrs by MTT assay; details: A-431, 72 h
HL-60 = assay: Anticancer activity against human HL60 cells after 48 hrs by MTT assay; details: HL-60, 48 h
K562 = assay: Anticancer activity against human K562 cells after 48 hrs by MTT assay; details: K562, 48 h
HepG2 = assay: Anticancer activity against human HepG2 cells after 72 hrs by MTT assay; details: HepG2, 72 h
SK-OV-3 = assay: Anticancer activity against human SKOV3 cells after 72 hrs by MTT assay; details: SK-OV-3, 72 h

| Structure (SMILES) | logP [1] | IC50 (A-431) | IC50 (HL-60) | IC50 (K562) | IC50 (HepG2) | IC50 (SK-OV-3) |
| --- | --- | --- | --- | --- | --- | --- |
| N#Cc1c(F)c(F)c2c(C(=O)c3ccccc3)c3n(c(=N)c2c1F)CCN3 | 2.63 | 0.8 µg/mL (≈ 2.17 µM) | 0.001 µg/mL (≈ 0.00272 µM) | 0.08 µg/mL (≈ 0.217 µM) | 1.2 µg/mL (≈ 3.26 µM) | 0.2 µg/mL (≈ 0.543 µM) |
| COc1ccc(C(=O)c2c3n(c(=N)c4c(Cl)c(C#N)c(Cl)c(Cl)c24)CCN3)cc1 | 4.02 | 2.1 µg/mL (≈ 4.69 µM) | 0.3 µg/mL (≈ 0.67 µM) | 0.7 µg/mL (≈ 1.56 µM) | 11.3 µg/mL (≈ 25.2 µM) |  |
| COc1ccc(C(=O)c2c3n(c(=N)c4c(F)c(C#N)c(F)c(F)c24)CCN3)cc1 | 2.62 | 7.5 µg/mL (≈ 18.8 µM) | 0.5 µg/mL (≈ 1.26 µM) | 0.4 µg/mL (≈ 1 µM) | 0.9 µg/mL (≈ 2.26 µM) |  |
| COc1ccc(C(=O)c2c3n(c(=N)c4c(F)c(C#N)c(F)c(Cl)c24)CCN3)cc1 | 3.26 | 1.9 µg/mL (≈ 4.58 µM) | 0.2 µg/mL (≈ 0.482 µM) | 0.3 µg/mL (≈ 0.723 µM) | 1.2 µg/mL (≈ 2.89 µM) |  |
| N#Cc1c(F)c(Cl)c2c(C(=O)c3ccc(Cl)cc3)c3n(c(=N)c2c1F)CCCN3 | 4.08 | 2.8 µg/mL (≈ 6.46 µM) | 0.2 µg/mL (≈ 0.462 µM) | 0.3 µg/mL (≈ 0.692 µM) | 2.1 µg/mL (≈ 4.85 µM) | 17.1 µg/mL (≈ 39.5 µM) |
| Cc1ccc(C(=O)c2c3n(c(=N)c4c(Cl)c(C#N)c(Cl)c(Cl)c24)CCCN3)cc1 | 4.61 | > 1000 µg/mL | 58.2 µg/mL (≈ 131 µM) | 9.3 µg/mL (≈ 20.9 µM) | 277 µg/mL (≈ 621 µM) | 826 µg/mL (≈ 1850 µM) |
| N#Cc1c(F)c(F)c2c(C(=O)c3ccc(Cl)cc3)c3n(c(=N)c2c1F)CCN3 | 3.36 | 4.9 µg/mL (≈ 12.2 µM) | 0.5 µg/mL (≈ 1.24 µM) | 1 µg/mL (≈ 2.48 µM) | 17.7 µg/mL (≈ 43.9 µM) | 34.5 µg/mL (≈ 85.7 µM) |
| CC(=O)c1c2n(c(=N)c3c(F)c(C#N)c(F)c(Cl)c13)CCN2 | 1.67 | 20.4 µg/mL (≈ 63.2 µM) | 0.9 µg/mL (≈ 2.79 µM) | 0.4 µg/mL (≈ 1.24 µM) | 6.4 µg/mL (≈ 19.8 µM) | 6.2 µg/mL (≈ 19.2 µM) |
| N#Cc1c(Cl)c(Cl)c2c(C(=O)c3ccccc3)c3n(c(=N)c2c1Cl)CCN3 | 4.03 | 3.4 µg/mL (≈ 8.14 µM) | 0.8 µg/mL (≈ 1.92 µM) | 0.7 µg/mL (≈ 1.68 µM) | 4.4 µg/mL (≈ 10.5 µM) | 19.7 µg/mL (≈ 47.2 µM) |
| N#Cc1c(F)c(F)c2c(C(=O)c3ccccc3)c3n(c(=N)c2c1F)CCO3 | 2.57 | 0.3 µg/mL (≈ 0.812 µM) | 0.008 µg/mL (≈ 0.0217 µM) | 0.0002 µg/mL (≈ 0.000542 µM) | 0.1 µg/mL (≈ 0.271 µM) | 0.2 µg/mL (≈ 0.542 µM) |
| CCOC(=O)c1c2n(c(=N)c3c(F)c(C#N)c(F)c(Cl)c13)CCN2 | 2.68 | 2.2 µg/mL (≈ 6.24 µM) | 0.003 µg/mL (≈ 0.00851 µM) | 0.0008 µg/mL (≈ 0.00227 µM) | 1.5 µg/mL (≈ 4.25 µM) | 0.05 µg/mL (≈ 0.142 µM) |
| COc1ccc(C(=O)c2c3n(c(=N)c4c(Cl)c(C#N)c(Cl)c(Cl)c24)CCCN3)cc1 | 4.1 | 56.9 µg/mL (≈ 123 µM) | 4.4 µg/mL (≈ 9.53 µM) | 1.4 µg/mL (≈ 3.03 µM) | 400 µg/mL (≈ 866 µM) | 67.2 µg/mL (≈ 146 µM) |
| CC(=O)c1c2n(c(=N)c3c(F)c(C#N)c(F)c(F)c13)CCN2 | 1.03 | 4.4 µg/mL (≈ 14.4 µM) | 0.02 µg/mL (≈ 0.0653 µM) | 0.1 µg/mL (≈ 0.327 µM) | 3.1 µg/mL (≈ 10.1 µM) | 0.02 µg/mL (≈ 0.0653 µM) |
| N#Cc1c(F)c(Cl)c2c(C(=O)c3ccc(Cl)cc3)c3n(c(=N)c2c1F)CCN3 | 4 | 5 µg/mL (≈ 11.9 µM) | 0.3 µg/mL (≈ 0.716 µM) | 1.4 µg/mL (≈ 3.34 µM) | 12.4 µg/mL (≈ 29.6 µM) | 34.9 µg/mL (≈ 83.3 µM) |
| CCOC(=O)c1c2n(c(=N)c3c(Cl)c(C#N)c(Cl)c(Cl)c13)CCN2 | 3.44 | 40.6 µg/mL (≈ 105 µM) | 1.7 µg/mL (≈ 4.41 µM) | 1.6 µg/mL (≈ 4.15 µM) | 38.2 µg/mL (≈ 99.1 µM) | 50.1 µg/mL (≈ 130 µM) |
| N#Cc1c(F)c(Cl)c2c(C(=O)c3ccccc3)c3n(c(=N)c2c1F)CCO3 | 3.21 | 2.3 µg/mL (≈ 5.96 µM) | 1.5 µg/mL (≈ 3.89 µM) | 1.7 µg/mL (≈ 4.41 µM) | 3.6 µg/mL (≈ 9.33 µM) | 29.2 µg/mL (≈ 75.7 µM) |
| N#Cc1c(F)c(F)c2c(C(=O)c3ccc(Cl)cc3)c3n(c(=N)c2c1F)CCCN3 | 3.44 | 4.3 µg/mL (≈ 10.3 µM) | 4.7 µg/mL (≈ 11.3 µM) | 0.5 µg/mL (≈ 1.2 µM) | 8.4 µg/mL (≈ 20.2 µM) | 15.1 µg/mL (≈ 36.2 µM) |
| Cc1ccc(C(=O)c2c3n(c(=N)c4c(F)c(C#N)c(F)c(F)c24)CCCN3)cc1 | 3.21 | 2.1 µg/mL (≈ 5.3 µM) | 4.7 µg/mL (≈ 11.9 µM) | 0.7 µg/mL (≈ 1.77 µM) | 2.4 µg/mL (≈ 6.05 µM) | 33.9 µg/mL (≈ 85.5 µM) |
